Molecules are shown by their SMILES. Non-standard residues stand in square brackets, D forms with d. Residues, ends and D or L forms follow the SMILES beside them. ξ: configuration not given here. Tyr(3-OMe) = COc1cc(C[C@H](N)C(=O)O)ccc1O; Phe(3-OMe) = COc1cccc(C[C@H](N)C(=O)O)c1; Dopa = N[C@@H](Cc1ccc(O)c(O)c1)C(=O)O; ξPhe(3-OMe) = COc1cccc(CC(N)C(=O)O)c1; mTyr = N[C@@H](Cc1cccc(O)c1)C(=O)O; ξmTyr = NC(Cc1cccc(O)c1)C(=O)O; ξY = NC(Cc1ccc(O)cc1)C(=O)O; ξD = NC(CC(=O)O)C(=O)O

The nature of the first test: Determined to achieve reproducible taste; + indicates ~1-5 times as sweet as sucrose.
Regarding `COC(=O)[C@H](Cc1ccc(O)c(OC)c1)NC(=O)C(N)CC(=O)O` (stereo partly specified) (H-[ξD]-[Tyr(3-OMe)]-OMe), the Taste was ~1-5 times as sweet as sucrose. On the same count and under the same terms, next, `COC(=O)[C@H](Cc1ccc(O)c(O)c1)NC(=O)[C@@H](N)CC(=O)O` (H-Asp-[Dopa]-OMe): ~1-5 times as sweet as sucrose.

The next test is described as follows: Determined to achieve reproducible taste; ++ indicates ~10-40 times as sweet as sucrose.
Take `COC(=O)[C@H](Cc1cccc(OC)c1)NC(=O)[C@@H](N)CC(=O)O` (H-Asp-[Phe(3-OMe)]-OMe): the Taste is ~10-40 times as sweet as sucrose. For the compound `COC(=O)[C@H](Cc1ccccc1O)NC(=O)[C@@H](N)CC(=O)O`, the Taste is listed as ~10-40 times as sweet as sucrose. Regarding `COC(=O)[C@H](Cc1ccc(O)cc1)NC(=O)[C@@H](N)CC(=O)O` (H-Asp-Tyr-OMe), the Taste is ~10-40 times as sweet as sucrose. The same measure, in the same setting: next, `COC(=O)C(Cc1cccc(OC)c1)NC(=O)[C@@H](N)CC(=O)O` (stereo partly specified) (H-Asp-[ξPhe(3-OMe)]-OMe): ~10-40 times as sweet as sucrose. `COC(=O)C(Cc1cccc(O)c1)NC(=O)[C@@H](N)CC(=O)O` (stereo partly specified) (H-Asp-[ξmTyr]-OMe): the Taste is reported as ~10-40 times as sweet as sucrose. Same read-out and setting: next, `COC(=O)C(Cc1ccc(O)cc1)NC(=O)[C@@H](N)CC(=O)O` (stereo partly specified) (H-Asp-[ξY]-OMe): ~10-40 times as sweet as sucrose.

Take `COC(=O)C(Cc1ccccc1O)NC(=O)[C@@H](N)CC(=O)O` (stereo partly specified): the Taste is ~10-40 times as sweet as sucrose.

Consider `COC(=O)[C@H](Cc1cccc(O)c1)NC(=O)[C@@H](N)CC(=O)O` (H-Asp-[mTyr]-OMe), for which the Taste is reported as ~10-40 times as sweet as sucrose.

A further test is described as follows: Determined to achieve reproducible taste; + indicates ~ 1-5 times as sweet as sucrose.
With `COC(=O)[C@H](Cc1ccc(OC)cc1)NC(=O)[C@@H](N)CC(=O)O` (H-Asp-Tyr(Me)-OMe), the Taste was ~ 1-5 times as sweet as sucrose.
